Where two headings read alike, the source gives them in different places.

The record followed here is patent US20150352108A1, “AMINO-PYRIMIDINE COMPOUNDS AS INHIBITORS OF TBK1 AND/OR IKK EPSILON” (Alzheimer's Institute of America, priority 2009, published 2015).

The test system of one assay is DU4475 cells. Description: Cell growth inhibition assay (CellTiter-Glo), DU4475. The assay is classed as cell-based. Particulars: Homo sapiens, DU-4475; 3-5 days. As to the method:
DU4475, COLO205, and OPM2 cells were plated in 96-well plates at 5000 cells/well. The following day test compounds (compounds according to Formula I) were added, maintaining the final DMSO solvent concentration at 0.4%. After the desired incubation time (3-5 days), cell number was assayed using the CellTiter-Glo luminescent cell viability assay (Promega, Inc., Madison, Wis.). Viability was expressed as percent DMSO control after background subtraction.
Background: In ATP-based viability assays light output follows the ATP content of the culture.

The target in the next assay is T1, TBK1 (Homo sapiens, UniProt Q9UHD2).
T1 construct: His-tag; made in house; host or cells: Sf9 insect cells
T1 sequence (Q9UHD2 1-729): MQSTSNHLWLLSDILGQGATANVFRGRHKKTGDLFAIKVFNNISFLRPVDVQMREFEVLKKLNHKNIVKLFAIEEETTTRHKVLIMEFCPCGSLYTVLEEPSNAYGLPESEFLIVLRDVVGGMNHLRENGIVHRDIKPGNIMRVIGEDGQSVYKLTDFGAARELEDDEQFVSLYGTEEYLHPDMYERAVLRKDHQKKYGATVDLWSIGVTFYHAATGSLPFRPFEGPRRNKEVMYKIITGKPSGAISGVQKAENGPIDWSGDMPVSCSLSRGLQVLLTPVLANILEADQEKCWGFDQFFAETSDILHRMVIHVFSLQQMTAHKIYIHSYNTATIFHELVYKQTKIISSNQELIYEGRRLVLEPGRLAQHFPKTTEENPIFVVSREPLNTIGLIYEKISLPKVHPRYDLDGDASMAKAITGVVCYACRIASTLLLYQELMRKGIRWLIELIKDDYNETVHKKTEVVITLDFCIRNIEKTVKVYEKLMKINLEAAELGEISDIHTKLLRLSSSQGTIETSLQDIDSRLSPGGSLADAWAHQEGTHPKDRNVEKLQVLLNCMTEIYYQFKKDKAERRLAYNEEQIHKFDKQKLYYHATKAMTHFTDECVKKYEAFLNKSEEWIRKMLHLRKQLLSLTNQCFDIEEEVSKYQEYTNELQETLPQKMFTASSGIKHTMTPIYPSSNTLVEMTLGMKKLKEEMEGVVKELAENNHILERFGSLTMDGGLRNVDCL
Description: In-vitro TBK1 kinase assay ([γ33]ATP filter-plate). It is filed as biochemical. In outline:
(§1)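 His-tagged IKKε and TBK1 from Sf9 cells were assayed with myelin basic protein or casein and [γ33]ATP at 2×Km ATP (32 μM for IKKε, 60 μM for TBK1). Enzyme was 0.1 or 0.015 μg/ml for IKKε and 0.1 or 0.02 μg/ml for TBK1 (normal/sensitized). Reactions ran 30-45 min, were filter-captured, scintillation-counted, and normalized to DMSO after background subtraction.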

The target of a further assay is T2, IKKε (Homo sapiens, UniProt Q14164).
T2 construct: His-tag; made in house; host or cells: Sf9 insect cells
T2 sequence (Q14164 1-716): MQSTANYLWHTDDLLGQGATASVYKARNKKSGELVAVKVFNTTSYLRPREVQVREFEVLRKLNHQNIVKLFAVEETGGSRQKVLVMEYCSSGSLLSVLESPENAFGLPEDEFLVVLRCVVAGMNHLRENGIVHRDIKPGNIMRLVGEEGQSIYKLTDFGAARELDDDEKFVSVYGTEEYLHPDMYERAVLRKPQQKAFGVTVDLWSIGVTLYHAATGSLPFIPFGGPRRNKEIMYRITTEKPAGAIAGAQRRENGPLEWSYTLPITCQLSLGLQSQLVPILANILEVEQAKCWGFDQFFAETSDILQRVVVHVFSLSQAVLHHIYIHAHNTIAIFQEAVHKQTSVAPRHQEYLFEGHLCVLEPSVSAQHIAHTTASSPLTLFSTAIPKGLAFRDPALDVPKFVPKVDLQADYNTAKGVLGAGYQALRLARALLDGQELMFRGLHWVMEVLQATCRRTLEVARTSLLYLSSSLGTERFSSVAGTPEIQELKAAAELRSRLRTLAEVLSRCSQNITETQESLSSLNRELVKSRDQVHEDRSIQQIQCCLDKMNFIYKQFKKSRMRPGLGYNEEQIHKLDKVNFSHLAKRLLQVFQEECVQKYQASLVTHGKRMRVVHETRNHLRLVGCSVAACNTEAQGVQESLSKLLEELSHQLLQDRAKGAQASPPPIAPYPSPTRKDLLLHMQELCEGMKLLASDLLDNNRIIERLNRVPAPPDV
Kind of assay: In-vitro IKKε kinase assay ([γ33]ATP filter-plate). It is filed as biochemical. In outline: as §1

The test system of assay [1] is IKKε-mediated phosphorylation of IRF3. Description: In-situ phosphorylation of IRF3 (pIRF3 Ser396 ELISA) in HEK293T cells cotransfected with IRF3 and IKKε. It is filed as cell-based. Particulars: Homo sapiens, HEK-293T. In outline: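 Cells for the IRF7 Western blots carried IRF7 and TBK1 plasmids, were seeded at 150,000/well, exposed to compound overnight and probed for pSer477/Ser479 IRF7. The ELISA readout used IRF3 + IKKε-cotransfected HEK293T at 20,000/well with 20 h treatment, quantifying pSer396 IRF3 relative to DMSO, plus a parallel CellTiter-Glo viability check.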

The test system of assay [2] is secreted RANTES, prostate cancer DU145 cells. Kind of assay: ELISA to detect secreted RANTES, DU145 cells. The assay is classed as cell-based. The following applies: Homo sapiens, DU-145; cell system (DU145 or Poly(I:C)-induced MALME-3) not specified; read-out: IC50 for inhibition of the secretion of RANTES. As to the method: Prostate cancer DU145 cells were seeded at 20,000 cells/well in a 96-well tissue culture plate. The following day media was removed and replaced with complete media containing IKKε/TBK1 inhibitor (starting concentration 25 µM, 1:3 dilutions, final DMSO 0.05%). Cells were incubated for 20 hours and culture supernatant used to determine secreted RANTES levels using a commercially available ELISA kit (R & D Systems, Minneapolis, Minn.).
(In general: In an ELISA, binding on a coated surface is turned into a signal by an enzyme label.)

Assay [3] relates to RANTES secretion, RAW264.7 cells. Description: RANTES secretion by RAW264.7 cells after nucleic acid agonists (ELISA). The assay is classed as cell-based, Mouse. The following applies: 100 nM. From the text:
(§2) Mouse RAW264.7 macrophage-like cells provide a model for macrophage function in tissue culture. To investigate the efficacy of compounds according to Formula I in inhibiting nucleic acid cytosolic receptor pathways RAW264.7 cells were pretreated with a compound according to Formula I (Example Compound 471) and then exposed to various single stranded and double stranded RNA and DNA agonists introduced into the cell. To track IKKε/TBK1 signaling pathway activation, RANTES or IFN-β protein secretion was monitored by ELISA-based assays (R & D systems), such as those described above.
RAW264.7 cells were seeded in 96-well culture plates and allowed to grow overnight. The following day, media was replaced and cells were pretreated with 100 nM Example Compound 471 (0.1% final DMSO concentration). After one hour cells were transfected with Lipofectime LTX reagent (Invitrogen, Carlsbad, Calif.) and one of the following agonists: low molecular weight Poly(I:C) (InvivoGen, San Diego, Calif.) at 10 μg/ml to activate RIG-I; high molecular weight Poly(I:C) (InvivoGen, San Diego, Calif.) at 10 μg/ml to activate MDA5; Poly(dA:dT) (InvivoGen, San Diego, Calif.) at 1 ug/ml; 45-basepair double stranded interferon stimulatory DNA oligo (ISD) at 10 μg/ml (Stetson and Medzhitov; Recognition of cytosolic DNA activates an IRF3-dependent innate immune response; Immunity, 24:93-103, 2006); ssDNA at 10 μg/ml (InvivoGen, San Diego, Calif.), ssRNA at 0.5 μg/ml (InvivoGen, San Diego, Calif.), or salmon sperm genomic DNA (gDNA) (InvivoGen, San Diego, Calif.) at 10 ug/ml to activate DAI, IFI16, and other cytosolic nucleic acid receptors. RANTES (FIG. 5) and IFN-β (FIG. 6) secretion were quantified using ELISA kits (Mouse CCL5/RANTES, R&D Systems, Inc., Minneapolis, Minn. and Mouse IFN-β, Thermo Fisher Scientific, Rockford, Ill.).

The test system of assay [4] is IFN-β secretion, RAW264.7 cells. Kind of assay: IFN-β secretion by RAW264.7 cells after nucleic acid agonists (ELISA). It is filed as cell-based, Mouse. The following applies: 100 nM.
Source text: as §2
RAW264.7 cells were seeded in 96-well culture plates and allowed to grow overnight. The following day, media was replaced and cells were pretreated with 100 nM Example Compound 471 (0.1% final DMSO concentration). […] RANTES (FIG. 5) and IFN-β (FIG. 6) secretion were quantified using ELISA kits (Mouse CCL5/RANTES, R&D Systems, Inc., Minneapolis, Minn. and Mouse IFN-β, Thermo Fisher Scientific, Rockford, Ill.).

The mark [5] stands for this setting: text bins, read-out: IC50 for inhibition of the kinase activity of TBK1.
Where [6] appears, read: text bins, read-out: IC50 for inhibition of the kinase activity of IKKε.
[7] abbreviates: HEK293T cells, 20 hours, text bins, read-out: IC50 for inhibition of the in-situ IKKε-mediated phosphorylation of IRF3.

As to `COc1ccc(-c2ccnc(Nc3cc(CO)c(OC)c(OC)c3)n2)cc1C#N` [Example 127, 5-(2-{[3-(Hydroxymethyl)-4,5-dimethoxyphenyl]amino}pyrimidin-4-yl)-2-methoxybenzonitrile], the IC50 with DU4475 cells is at most 0.01 µM; at TBK1 (setting [5]), below 0.01 µM; at IKKε (setting [6]), below 0.005 µM.
Consider `COCCOCC(=O)Nc1cc(Nc2nccc(-c3ccc(OC)c(C#N)c3)n2)cc(OC)c1` [compound 316, N-(3-{[4-(3-Cyano-4-methoxyphenyl)pyrimidin-2-yl]amino}-5-methoxyphenyl)-2-(2-methoxyethoxy) acetamide], for which the IC50 was at most 0.01 µM with DU4475 cells and 0.005 to 0.05 µM at IKKε (setting [6]).
On to `COc1cc(NC(=O)CCSC)cc(Nc2nccc(-c3ccc(OC)c(C#N)c3)n2)c1` [compound 339, N-(3-{[4-(3-Cyano-4-methoxyphenyl)pyrimidin-2-yl]amino}-5-methoxyphenyl)-3-(methylsulfanyl) propanamide], for which the IC50 was at most 0.01 µM in the assay with DU4475 cells, 0.01 to 0.1 µM at TBK1 (setting [5]) and 0.005 to 0.05 µM on IKKε (setting [6]).
For the compound `COc1cc(-c2ccnc(Nc3ccc(N4CCN(CCO)CC4)cc3)n2)cc(C#N)c1OC1CCOCC1` [compound 446, 5-[2-({4-[4-(2-Hydroxyethyl)piperazin-1-yl]phenyl}amino)pyrimidin-4-yl]-3-methoxy-2-(tetrahydro-2H-pyran-4-yloxy)benzonitrile], the IC50 was below 0.1 µM in assay [1] (setting [7]), below 0.01 µM on TBK1 (setting [5]), below 0.01 µM in assay [2] and below 0.005 µM on IKKε (setting [6]).
As to `N#Cc1cc(-c2ccnc(Nc3ccc(N4CCOCC4)cc3)n2)ccc1O[C@@H]1CCN(C(=O)CO)C1` [compound 471, 2-{[(3R)-1-(hydroxyacetyl)pyrrolidin-3-yl]oxy}-5-(2-{[4-(morpholin-4-yl)phenyl]amino}pyrimidin-4-yl)benzonitrile], the IC50 in assay [1] (setting [7]) is below 0.1 µM. The IC50 at TBK1 (setting [5]) is below 0.01 µM. In addition, in assay [3], the “induction of RANTES secretion by DNA agonists ISD, ssDNA, poly(dA:dT), gDNA” value is “potently inhibited”; the “induction of RANTES secretion by low and high molecular weight poly(I:C)” value is “modestly inhibited”; the “induction of RANTES secretion by ssRNA agonist” value was “potently inhibited”. Besides, the IC50 at IKKε (setting [6]) was below 0.005 µM. In assay [4], the “induction of IFN-β secretion by DNA agonists ISD, ssDNA, poly(dA:dT), gDNA” value is “potently inhibited”; the “induction of IFN-β secretion by low and high molecular weight poly(I:C)” value is given as “modestly inhibited”.
Regarding `CC(=O)NCc1ccc(Nc2nccc(-c3ccc(OC4CCOCC4)c(C#N)c3)n2)cc1` [compound 492, N-[4-({4-[3-cyano-4-(tetrahydro-2H-pyran-4-yloxy)phenyl]pyrimidin-2-yl}amino)benzyl] acetamide], the IC50 in assay [1] (setting [7]) is below 0.1 µM; at TBK1 (setting [5]) it was below 0.01 µM; in assay [2], below 0.01 µM; on IKKε (setting [6]), below 0.005 µM.
Regarding `COc1cc(Nc2nccc(-c3ccc(OC4CCOCC4)c(C#N)c3)n2)ccc1C(=O)N(C)CCN(C)C` [compound 505, 4-({4-[3-cyano-4-(tetrahydro-2H-pyran-4-yloxy)phenyl]pyrimidin-2-yl}amino)-N-[2-(dimethylamino)ethyl]-2-mrthoxy-N-methylbenzamide], the IC50 in assay [1] (setting [7]) is below 0.1 µM; at TBK1 (setting [5]) it was below 0.01 µM; in assay [2], below 0.01 µM; on IKKε (setting [6]) it was below 0.005 µM.
Take `N#Cc1cc(-c2ccnc(Nc3cccc(NCCN4CCOCC4)c3)n2)ccc1OC1CCOCC1` [compound 657]: the IC50 was 0.0976 µM in assay [1] (HEK293T cells in culture, Table 3, read-out: pIRF3 ELISA IC50); below 0.1 µM in assay [1] (setting [7]); 0.0013 µM on TBK1 (Table 3, read-out: TBK1 IC50); below 0.01 µM on TBK1 (setting [5]); 0.0013 µM on IKKε (Table 3, read-out: IKKε IC50); below 0.005 µM at IKKε (setting [6]).

Usually IC50 stands for the point on the concentration scale where inhibition reaches its midpoint.
